The values below are quoted from earlier work in PMC2613028, “Discovery of a Non-Peptidic Inhibitor of West Nile Virus NS3 Protease by High-Throughput Docking” (PLoS Neglected Tropical Diseases, 2009).

In the data set the test system is WNV protease. Set-up: method as in PMID 17064076. The note with it: peptide aldehyde inhibitors.

Where two headings read alike, the source gives them in different places.

A word on the IC50: it is the point on the concentration scale where inhibition reaches its midpoint. For “benzoyl-norleucine-lysine-arginine-arginine-aldehyde [Bz-Nle-Lys-Arg-Arg-H]”, the IC50 is 4.1 µM. Besides, where the note is “listed as Bz-nKRR-H”, the IC50 was 4 µM.
